Laboratory results published in publication PMC3995007, “GTP binding controls complex formation by the human ROCO protein MASL1” (The Febs Journal, 2013).

Key:
MASL1 [1] = target: T1, MASL1 (Homo sapiens, UniProt Q9Y4C4); experiment: pulldown on GTP-sepharose beads, competition with free GTP, immunoblot; format: binding; details: clarified HEK293T lysate, 4 °C, 2 h; free GTP 10 mM; immobilised GTP; ROC domain site
T1 construct: gene MFHAS1; overexpressed in HEK293T, clarified lysate; plasmid from Genecopoeia
T1 sequence (Q9Y4C4 2-1052): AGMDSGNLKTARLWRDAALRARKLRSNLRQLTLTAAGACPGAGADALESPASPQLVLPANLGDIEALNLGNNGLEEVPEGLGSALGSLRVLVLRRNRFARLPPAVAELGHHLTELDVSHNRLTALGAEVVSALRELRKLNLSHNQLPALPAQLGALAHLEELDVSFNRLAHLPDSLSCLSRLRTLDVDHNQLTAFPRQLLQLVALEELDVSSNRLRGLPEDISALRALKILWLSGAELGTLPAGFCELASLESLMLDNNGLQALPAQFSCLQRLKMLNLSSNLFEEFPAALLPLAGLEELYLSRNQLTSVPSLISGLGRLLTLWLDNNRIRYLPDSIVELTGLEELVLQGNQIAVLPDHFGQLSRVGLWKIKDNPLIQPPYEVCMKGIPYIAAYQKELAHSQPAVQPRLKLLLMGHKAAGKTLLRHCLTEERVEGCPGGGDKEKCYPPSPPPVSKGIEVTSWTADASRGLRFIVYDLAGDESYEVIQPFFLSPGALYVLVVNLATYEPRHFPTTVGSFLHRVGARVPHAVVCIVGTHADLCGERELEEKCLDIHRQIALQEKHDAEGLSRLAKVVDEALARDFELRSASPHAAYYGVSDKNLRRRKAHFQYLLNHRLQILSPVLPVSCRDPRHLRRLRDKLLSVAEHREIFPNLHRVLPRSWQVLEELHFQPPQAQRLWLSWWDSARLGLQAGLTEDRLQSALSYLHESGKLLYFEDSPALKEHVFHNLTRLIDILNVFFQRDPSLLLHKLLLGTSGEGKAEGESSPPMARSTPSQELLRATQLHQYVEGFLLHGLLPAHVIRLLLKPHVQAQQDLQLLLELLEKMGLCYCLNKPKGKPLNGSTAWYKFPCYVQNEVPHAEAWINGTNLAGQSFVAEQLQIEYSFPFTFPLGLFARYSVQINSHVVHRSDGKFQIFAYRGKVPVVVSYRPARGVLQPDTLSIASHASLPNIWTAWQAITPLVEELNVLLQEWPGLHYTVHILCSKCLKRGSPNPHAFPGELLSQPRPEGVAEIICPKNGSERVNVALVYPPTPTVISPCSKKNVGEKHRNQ

MASL1 [2] = target: T1, MASL1; experiment: size exclusion chromatography of lysate, shift between HMW and LMW complex, dot blot; format: biochemical; details: 200 µM GDP in HEK293T lysate and mobile phase, pH 7.5; indirect read-out of binding, K422A used as control

SMILES	pulldown on GTP-sepharose beads, competition with free GTP, immunoblot (MASL1 [1])	size exclusion chromatography of lysate, shift between HMW and LMW complex, dot (MASL1 [2])
Nc1nc2c(ncn2[C@@H]2O[C@H](COP(=O)(O)OP(=O)(O)OP(=O)(O)O)[C@@H](O)[C@H]2O)c(=O)[nH]1 [GTP]	Wild type HA-tagged MASL1 was able to bind GTP immobilized on sepharose beads	–
Nc1nc2c(ncn2[C@@H]2O[C@H](COP(=O)(O)OP(=O)(O)O)[C@@H](O)[C@H]2O)c(=O)[nH]1 [GDP]	–	GDP shifted the equilibrium between LMW and HMW complex towards the latter
